Test results as given in patent US12187717B2, “Compound and use thereof in treating autoimmune diseases” (PARENCHYMA BIOTECH INC., priority 2022, dated 2025).

Tests used:
CYP3A4 = CYP3A4 (Homo sapiens, UniProt P08684); conditions: 2 days, 10 μM
Procedure: Live human hepatocyte cell lines (Corning, Cat No. 454551) were collected using a plating medium, seeded on a 24-well plate so that a cell density thereof was 0.4×10^6 cells/well, and cultured for 2 to 4 hours. After replacing the plating medium with a hepatocyte culture medium, the hepatocytes were cultured for 24 hours. After culturing for 24 hours, hepatocytes were treated with Compound 6 at 1, 5, 25 µM. The medium containing the compound was changed every 24 hours for 2 days. The cultured cells were recovered to prepare mRNA samples. mRNA was extracted from the recovered cells by a phenol-chloroform sedimentation method using TRIZOL reagent (Invitrogen, Cat No. 15596018). From the isolated RNA, cDNA was synthesized by reverse transcription, followed by measuring drug metabolizing enzymes CYP1A2, CYP2C9, CYP2C19, CYP2B6, and CYP3A4 through real-time PCR analysis using the Quant Studio™ 7 Flex Real-Time PCR System (Applied Biosystems, CA). Relative values of the enzyme expression levels were compared by the ΔΔct method using GAPDH as a control enzyme. Herein, one (1) fold was set using the control. Results are expressed as % of control compared to control sample.

CYP2C9 = CYP2C9 (Homo sapiens, UniProt P11712); assay: CYP isoenzyme activity; format: in vitro ADME; conditions: 10 μM
CYP2C9, sequence (P11712 whole entry): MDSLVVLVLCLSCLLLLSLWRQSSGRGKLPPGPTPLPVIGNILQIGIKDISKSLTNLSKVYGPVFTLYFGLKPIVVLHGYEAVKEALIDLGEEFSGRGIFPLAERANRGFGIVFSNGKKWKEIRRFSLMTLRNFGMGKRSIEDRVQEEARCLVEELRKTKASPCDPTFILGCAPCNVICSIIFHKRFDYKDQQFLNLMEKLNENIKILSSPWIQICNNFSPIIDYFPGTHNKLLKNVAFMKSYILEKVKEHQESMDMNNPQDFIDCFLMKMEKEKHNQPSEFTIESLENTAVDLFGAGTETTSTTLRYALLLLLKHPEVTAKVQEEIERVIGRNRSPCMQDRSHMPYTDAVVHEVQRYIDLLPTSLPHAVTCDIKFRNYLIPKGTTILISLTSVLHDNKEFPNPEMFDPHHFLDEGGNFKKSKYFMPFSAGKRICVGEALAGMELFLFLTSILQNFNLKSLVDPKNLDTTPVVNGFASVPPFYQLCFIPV

CYP2D6 = CYP2D6 (Homo sapiens, UniProt P10635); conditions: 2 days, 10 μM
CYP2D6, sequence (P10635 whole entry): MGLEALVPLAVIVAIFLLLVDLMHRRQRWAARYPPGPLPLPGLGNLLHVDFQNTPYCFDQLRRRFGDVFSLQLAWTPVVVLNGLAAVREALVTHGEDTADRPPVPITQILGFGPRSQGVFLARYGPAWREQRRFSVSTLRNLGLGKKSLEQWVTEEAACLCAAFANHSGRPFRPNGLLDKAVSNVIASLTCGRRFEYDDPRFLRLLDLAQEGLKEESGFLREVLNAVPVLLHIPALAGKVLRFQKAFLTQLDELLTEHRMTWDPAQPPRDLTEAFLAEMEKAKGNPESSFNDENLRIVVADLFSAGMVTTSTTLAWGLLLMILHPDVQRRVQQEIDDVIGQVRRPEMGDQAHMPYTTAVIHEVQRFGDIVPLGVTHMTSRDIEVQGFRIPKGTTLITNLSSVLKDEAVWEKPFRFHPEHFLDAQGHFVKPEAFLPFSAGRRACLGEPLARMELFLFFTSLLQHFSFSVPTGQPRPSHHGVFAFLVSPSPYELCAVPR

[1] = pH-metric solubility and logP (SIRIUS T3); format: physicochemical; conditions: pH-metric results, SIRIUS T3
Procedure: After dissolving Compound 6 in ethanol, the solubility was measured and analyzed using a SIRIUS T3 machine.

CYP1A2 = biological target: T1, CYP1A2 (Homo sapiens, UniProt P05177); assay: CYP isoenzyme activity; format: in vitro ADME; conditions: 10 μM
T1 sequence (P05177 1-516): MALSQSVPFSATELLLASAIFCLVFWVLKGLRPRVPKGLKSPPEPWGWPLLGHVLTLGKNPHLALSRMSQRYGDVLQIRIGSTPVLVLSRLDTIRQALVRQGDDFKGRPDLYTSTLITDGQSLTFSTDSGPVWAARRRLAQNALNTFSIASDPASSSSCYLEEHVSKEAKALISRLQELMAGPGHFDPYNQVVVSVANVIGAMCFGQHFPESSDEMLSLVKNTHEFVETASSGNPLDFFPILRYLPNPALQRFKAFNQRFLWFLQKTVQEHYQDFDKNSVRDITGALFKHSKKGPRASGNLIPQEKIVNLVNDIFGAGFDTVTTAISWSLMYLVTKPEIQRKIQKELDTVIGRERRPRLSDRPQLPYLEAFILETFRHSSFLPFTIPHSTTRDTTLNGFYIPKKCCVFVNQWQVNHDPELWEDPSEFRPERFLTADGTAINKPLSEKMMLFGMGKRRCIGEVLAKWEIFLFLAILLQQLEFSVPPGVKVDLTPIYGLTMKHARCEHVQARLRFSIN

CYP2C19 = CYP2C19 (Homo sapiens, UniProt P33261); assay: CYP isoenzyme activity; format: in vitro ADME; conditions: 10 μM
CYP2C19, sequence (P33261 whole entry): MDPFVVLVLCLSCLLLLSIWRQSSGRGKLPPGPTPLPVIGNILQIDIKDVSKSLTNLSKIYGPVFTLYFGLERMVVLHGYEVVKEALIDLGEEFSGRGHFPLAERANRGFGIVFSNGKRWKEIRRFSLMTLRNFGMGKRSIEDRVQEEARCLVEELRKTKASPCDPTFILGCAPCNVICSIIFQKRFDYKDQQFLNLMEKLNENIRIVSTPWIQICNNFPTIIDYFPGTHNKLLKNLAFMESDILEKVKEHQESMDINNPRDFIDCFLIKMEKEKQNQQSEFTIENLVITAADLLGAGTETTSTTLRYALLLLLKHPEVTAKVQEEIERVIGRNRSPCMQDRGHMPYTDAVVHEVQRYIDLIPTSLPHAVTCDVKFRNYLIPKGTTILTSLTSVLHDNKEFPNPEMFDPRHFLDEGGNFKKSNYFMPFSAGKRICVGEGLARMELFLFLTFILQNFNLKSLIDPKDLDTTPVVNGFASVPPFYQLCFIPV

[2] = Pharmacokinetic parameters after oral or intravenous administration; format: in vivo; conditions: rats
Procedure: For rats, an oral administration group was fasted for 16 hours, and an intravenous administration group was subjected to intravenous administration with 10 mL/kg of solution prepared by completely dissolving Compound 6 in an ethanol-Cremophor EL mixture corresponding to 7.5% (v/v) of the administered dose, and then diluting in phosphate buffered saline so as to be the final ethanol:Cremophor EL:phosphate buffered saline (0.375:0.375:9.25, v/v/v), without fasting, at the dose concentration listed in Table 3. The oral administration group was supplied with food about 4 hours after administration. Blood collection was performed on the intravenous administration group after 0.083, 0.5, 1, 2, 4, 8, 24 hours from the administration and on the oral administration group after 0.5, 1, 2, 4, 8, 12, 24 hours from the administration, and plasma was recovered using centrifugation. In the recovered plasma, the drug concentration in the plasma was measured using UHPLC-MS/MS method.

[3] = rat, plasma, Intravenous (IV), 1 mg/kg
[4] = rat, plasma, Oral (PO), 10 mg/kg
[5] = rat, plasma, Oral (PO), 100 mg/kg
[6] = Oral (PO), 10 mg/kg (reference dose, dose ratio 1)
[7] = Oral (PO), 100 mg/kg relative to 10 mg/kg (dose ratio 10.0)

CYP3A4, sequence (P08684 whole entry): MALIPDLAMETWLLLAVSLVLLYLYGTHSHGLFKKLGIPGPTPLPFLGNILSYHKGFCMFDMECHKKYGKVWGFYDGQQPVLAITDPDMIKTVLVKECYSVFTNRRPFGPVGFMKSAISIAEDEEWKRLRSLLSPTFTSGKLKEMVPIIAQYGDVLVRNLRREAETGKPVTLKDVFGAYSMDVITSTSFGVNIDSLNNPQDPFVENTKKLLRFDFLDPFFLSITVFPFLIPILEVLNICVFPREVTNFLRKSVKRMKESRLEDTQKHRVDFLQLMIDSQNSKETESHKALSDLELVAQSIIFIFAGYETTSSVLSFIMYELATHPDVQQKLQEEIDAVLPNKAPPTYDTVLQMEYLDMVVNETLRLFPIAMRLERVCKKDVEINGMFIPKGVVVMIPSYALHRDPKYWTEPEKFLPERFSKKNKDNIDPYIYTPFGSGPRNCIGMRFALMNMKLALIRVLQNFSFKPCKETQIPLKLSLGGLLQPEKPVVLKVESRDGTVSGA

O=C(Cc1c[nH]c2ccc(Cl)cc12)Nc1nc2ccccc2s1 [Comparative Example 1, N-(benzo[d]thiazol-2-yl)-2-(5-chloro-1H-indol-3-yl)acetamide, reference compound]
CYP3A4 activity (CYP3A4): 107.6 % of Control Activity | CYP2C9 activity (CYP2C9): 91.9 % of Control Activity | CYP2D6 activity (CYP2D6): 93.3 % of Control Activity | logP [1]: 2.8 | pH-metric solubility, Molarity [1]: 3.65 μM | pH-metric solubility, Weight/ml [1]: 1.248 μg/ml | CYP1A2 activity (CYP1A2): 64.6 % of Control Activity | CYP2C19 activity (CYP2C19): 24.4 % of Control Activity | inhibition of the enzyme activity of CYP2C19 (CYP2C19): 24.4% | AUC(0-t) [2, 3]: 0.183 µg·h/mL | C0 [2, 3]: 0.406 µg/mL | clearance [2, 3]: 0.43 L/h/kg | half-life [2, 3]: 48 min | Vd ([2]; rat, plasma, Intravenous (IV), 1 mg/kg, read-out: Vdss): 0.311 L/kg | AUC(0-t) [2, 4]: 0.366 µg·h/mL | Cmax [2, 4]: 0.126 µg/mL | Tmax [2, 4]: 60 min | half-life [2, 4]: 54 min | bioavailability ([2]; rat, plasma, Oral (PO), 10 mg/kg, read-out: Bioavailability (F %)): 20% | AUC(0-t) [2, 5]: 0.644 µg·h/mL | Cmax [2, 5]: 0.152 µg/mL | Tmax [2, 5]: 30 min | half-life [2, 5]: 408 min | AUClast Ratio [2, 6]: 1.0 | Cmax ratio [2, 6]: 1.0 | AUClast Ratio [2, 7]: 1.8 | Cmax ratio [2, 7]: 1.2
